# Source: article PMC2929268 (The Journal of organic chemistry, 2010)
# What was measured:
# [1] = target: T1, hMC4R (Homo sapiens, UniProt P32245); assay: Assay B: europium-based competitive binding assay with probe 18; conditions: over the range of concentrations tested
# [2] = target: T1, hMC4R; assay: Assay A: europium-based competitive binding assay with probe 17; conditions: over the range of concentrations tested
# T1 sequence (P32245 whole entry): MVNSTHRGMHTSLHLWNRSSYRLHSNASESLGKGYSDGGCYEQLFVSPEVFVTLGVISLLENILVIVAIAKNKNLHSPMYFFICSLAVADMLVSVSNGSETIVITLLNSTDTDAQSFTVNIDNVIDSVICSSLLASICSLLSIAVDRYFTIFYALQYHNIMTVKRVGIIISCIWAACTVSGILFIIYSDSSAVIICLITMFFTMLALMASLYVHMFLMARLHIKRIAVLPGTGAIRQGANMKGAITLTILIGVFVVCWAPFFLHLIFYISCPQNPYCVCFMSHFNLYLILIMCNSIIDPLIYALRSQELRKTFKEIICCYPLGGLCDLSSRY
structure (smiles),measurement,setting,value
"CCCCc1cn(CCCCCC(=O)NC(CO)C(N)=O)nn1 (centres unmarked) [Compound 11, N-(1-Amino-3-hydroxy-1-oxopropan-2-yl)-6-(4-butyl-1H-1,2,3-triazol-1-yl)hexanamide]",blocking probe 18 from binding to hMC4R,[1],ineffective
same,blocking probe 17 from binding to hMC4R,[2],ineffective
